Measurements as given in patent US20240327400A1, “COMPOSITIONS AND METHODS FOR MODULATING HAIR GROWTH” (The Regents of the University Of California, priority 2020, published 2024).

System: Lactate dehydrogenase (LDH) activity
Test: LDH activity assay on human skin lysate (Ldh platereader protocol)
Assay type: biochemical
Details: human skin lysate pretreated with benzil prior to incubation with MPC inhibitors; FIG. 7
Protocol: Human skin samples were homogenized with a Benchmark BeadBlaster24R in 500 μl of Pierce RIPA Lysis and Extraction buffer (Thermo Scientific Cat No: 89900), centrifuged at 10,000 g for 15 minutes at 4° C. to remove insoluble material, and the soluble fraction quantified by Pierce BCA assay (Thermo Scientific Cat No: 23225). Lactate dehydrogenase activity was quantified using a Sigma Aldrich Lactate Dehydrogenase Activity Assay Kit (Catalog No: MAK066). Briefly, 10 μg of sample was loaded per well in a 96 well plate along with 20 uM of Pelage compounds and pre-incubated at 37° C. for 30 minutes before addition of Ldh assay master mix. Using a Biotek Synergy HTX multi-mode reader, the plate was incubated at 37° C. and absorbance measurements at 450 nm (A450) were taken every 3 minutes for 30 minutes. The LDH activity of each sample was quantified by calculating the AA450 over time.

- effect on LDH activity after pretreatment with a carboxylesterase inhibitor (benzil): no effect
SMILES: N#C/C(=C\c1cn(-c2ccccc2)c2ccccc12)C(=O)O [UK5099]
